In EP4603105A1, “PHARMACEUTICAL COMPOSITION CONTAINING CYCLIC COMPOUND HAVING SELECTIVE KRAS INHIBITORY EFFECT AGAINST HRAS AND NRAS” (CHUGAI SEIYAKU KABUSHIKI KAISHA, priority 2022, dated 2024):
Read-outs that look alike come from different tables or passages of the source.

How the values were obtained:
[1] = molecular target: GDP-bound KRAS wild-type protein (Homo sapiens, UniProt P01116); assay: Binding to KRAS by surface plasmon resonance (SPR), dissociation constant KD
How it was run: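 Running buffer contained 10 µM GDP and 10 mM MgCl2 to keep RAS in the GDP state, with 4% DMSO at pH 7.4. Compounds were flowed at 100 µL/min in 75 s steps of rising concentration over captured biotin-Avi RAS at 30°C. Sensorgrams were fitted 1:1 for KD.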

[2] = molecular target: GDP-bound NRAS wild-type protein (Homo sapiens, UniProt P01111); assay: Binding to NRAS by surface plasmon resonance (SPR), KD and KD ratio to KRAS
Chain of GDP-bound NRAS wild-type protein (P01111 whole entry): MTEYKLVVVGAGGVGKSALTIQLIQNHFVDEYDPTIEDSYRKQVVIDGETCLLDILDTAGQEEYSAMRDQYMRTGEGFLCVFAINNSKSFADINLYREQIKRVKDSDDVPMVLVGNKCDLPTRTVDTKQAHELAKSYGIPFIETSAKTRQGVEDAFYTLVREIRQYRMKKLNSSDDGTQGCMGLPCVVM
How it was run: (§1)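 SPR, 30°C: Avi-biotin RAS·GDP captured via Biotin CAPture (~100–300 RU); running buffer HBS pH 7.4, 1 mM DTT, 10 mM MgCl2, 0.01% Tween 20, 10 µM GDP, 4% DMSO. Single-cycle kinetics, 100 µL/min, 75 s injections; 1:1 model → KD.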

HRAS wild-type protein = HRAS wild-type protein (Homo sapiens, UniProt P01112); assay: Binding to HRAS by surface plasmon resonance (SPR), KD and KD ratio to KRAS
Chain of HRAS wild-type protein (P01112 whole entry): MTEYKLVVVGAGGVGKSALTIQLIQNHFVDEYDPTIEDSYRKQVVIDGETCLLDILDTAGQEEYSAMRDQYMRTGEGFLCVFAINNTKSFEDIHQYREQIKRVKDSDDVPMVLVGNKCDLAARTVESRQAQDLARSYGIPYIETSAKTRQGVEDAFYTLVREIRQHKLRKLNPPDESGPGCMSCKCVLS
How it was run: as §1

[3] = tested on: human lung cancer strain NCI-H441; assay: NCI-H441 cell proliferation inhibitory activity (CellTiter-Glo, 4 days); type: cell-based; conditions: read-out: NCl-H441 IC50
Experimental: A test compound was dispensed into a U-bottom 384-well plate as 40 nL serially diluted dimethyl sulfoxide solutions using a liquid handler Echo (LABCYTE). […] This cell suspension was dispensed in an amount of 40 µL per well into a plate containing the test compound, and cultured at 37°C in a 5% carbon dioxide gas incubator. Four days later, 20 µL of CellTiter-Glo (registered trademark) (Promega) was added to each well and […] was measured. […]

[4] = Single Cycle Kinetics, 1:1 binding model
[5] = ratio of KD with respect to GDP-bound NRAS wild-type protein to KD with respect to KRAS
[6] = ratio of KD with respect to HRAS wild-type protein to KD with respect to KRAS
[7] = 50% proliferation inhibitory concentration, four days
[8] = ratio of KD for GDP-bound NRAS wild-type protein to KD for KRAS
[9] = ratio of KD for HRAS wild-type protein to KD for KRAS

Chain of GDP-bound KRAS wild-type protein (P01116 1-188 isoform P01116-2): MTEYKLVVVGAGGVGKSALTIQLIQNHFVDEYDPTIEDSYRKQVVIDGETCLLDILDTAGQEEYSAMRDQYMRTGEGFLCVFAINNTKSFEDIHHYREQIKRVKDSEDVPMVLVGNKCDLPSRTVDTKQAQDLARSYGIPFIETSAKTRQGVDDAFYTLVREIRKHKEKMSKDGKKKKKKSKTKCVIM

Kd [1, 4] [nM]	IC50 [3, 7] [nM]	Kd ([1]; 1:1 binding model) [nM]	IC50 ([3]; NCI-H441 cells, 4 days) [nM]	Kd ([1]; Single Cycle Kinetics) [nM]	SMILES	NRAS /KRAS [2, 5]	HRAS /KRAS (HRAS wild-type protein; [6])	NRAS /KRAS [2, 8]	HRAS /KRAS (HRAS wild-type protein; [9])
0.15	18.2				CCO[C@@H]1C[C@H]2C(=O)NC3(CCC3)C(=O)N(C)[C@@H](C3CCCC3)C(=O)N(C)[C@H](C(=O)N(C)C)CC(=O)N(C)[C@@H](CC3CCCC3)C(=O)N[C@@H]([C@@H](C)CC)C(=O)N(C)CC(=O)N(C)[C@H]3C/C=C\CCN(C3=O)[C@@H](CC3CCC(F)(F)CC3)C(=O)N(C)CC(=O)N[C@@H](CCc3cc(F)c(C(F)(F)F)c(F)c3)C(=O)N2C1 [PP1458]	A (a compound having 10 or more and less than 20 is denoted as A)	A (a compound having 10 or more and less than 20 is denoted as A)		
		1.3	80.7		CCOC[C@H]1C(=O)N[C@@H]([C@@H](C)CC)C(=O)N(C)CC(=O)N(C)[C@H]2C/C=C\CCN(C2=O)[C@@H](CC2CCC(F)(F)CC2)C(=O)N(C)CC(=O)N[C@@H](CCc2ccc(C(F)(F)F)c(OC)c2)C(=O)N2C[C@@H](C)C[C@H]2C(=O)NC2(CC(C)(C)C2)C(=O)N(C)[C@@H](C(CC)CC)C(=O)N(C)[C@H](C(=O)N(C)C)CC(=O)N1C [PP2458]			A (a compound having 10 or more and less than 20 is denoted as A)	A (a compound having 10 or more and less than 20 is denoted as A)
			17.6	0.26	CCC[C@H]1C(=O)N[C@@H]([C@@H](C)CC)C(=O)N2CCC[C@H]2C(=O)N(C)[C@H]2C/C=C\CCN(C2=O)[C@@H](Cc2ccc(C(F)(F)F)cc2)C(=O)N(C)CC(=O)N[C@@H](CCc2ccc(C(F)(F)F)c(Cl)c2)C(=O)N2CC[C@H](OC)[C@H]2C(=O)N(C)C2(CCC2)C(=O)N(C)[C@@H](C2CCCC2)C(=O)N(C)[C@H](C(=O)N(C)C)CC(=O)N1C [PP3289]			A (a compound having 10 or more and less than 20 is denoted as A)	A (a compound having 10 or more and less than 20 is denoted as A)
		4.1	195		CCC[C@H]1C(=O)N[C@@H](CC(C)C)C(=O)N(C2CC2)CC(=O)N(C)[C@H]2C/C=C\CCN(C2=O)[C@@H](Cc2ccc(C)cc2)C(=O)N(C)CC(=O)N[C@@H](CCc2ccc(C(F)(F)F)c(OC)c2)C(=O)N2C[C@H](OCC)C[C@H]2C(=O)NC2(CCC2)C(=O)N(C)[C@@H](C2CCCC2)C(=O)N(C)[C@H](C(=O)N(C)C)CC(=O)N1C [PP2534]			A (a compound having 10 or more and less than 20 is denoted as A)	B (a compound having 3 or more and less than 10 is denoted as B)
0.035	19.6				CC[C@H](C)[C@@H]1NC(=O)[C@H](CC)N(C)C(=O)C[C@@H](C(=O)N(C)C)N(C)C(=O)[C@H](C2CCCC2)N(C)C(=O)C2(CCC2)NC(=O)[C@@H]2C[C@@H](OC)CN2C(=O)[C@H](CCc2cc(F)c(C(F)(F)F)c(F)c2)NC(=O)CN(C)C(=O)[C@H](Cc2ccc(C(F)(F)F)cc2)N2CC/C=C\C[C@@H](C2=O)N(C)C(=O)CN(C)C1=O [PP1130]	A (a compound having 10 or more and less than 20 is denoted as A)	B (a compound having 3 or more and less than 10 is denoted as B)		
0.3	51.2				CCCCCC[C@H]1C(=O)N[C@@H]([C@@H](C)CC)C(=O)N(C)CC(=O)N(C)[C@H]2C/C=C\CCN(C2=O)[C@@H](Cc2ccc(C(F)(F)F)cc2)C(=O)N(C)CC(=O)N[C@@H](CCc2ccc(Cl)c(Cl)c2)C(=O)N2C[C@H](OCC)C[C@H]2C(=O)NC2(CCC2)C(=O)N(C)[C@@H](C2CCCC2)C(=O)N(C)[C@H](C(=O)N(C)C)CC(=O)N1C [PP1252]	AA (a compound having 20 or more is denoted as AA)	A (a compound having 10 or more and less than 20 is denoted as A)		
